The values below come from ChEMBL document CHEMBL1129999, “Modeling, chemistry, and biology of the benzolactam analogues of indolactam V (ILV). 2. Identification of the binding site of the benzolactams in the CRD2 activator-binding domain of PKCdelta and discovery of an ILV analogue of improved isozyme selectivity” (J Med Chem, 1997).

The target in test [1] is Protein kinase C alpha type (Homo sapiens, UniProt P17252). Nature of the test: Displacement of [3H]- PDBu from recombinant PKC alpha expressed in baculovirus. A general note: Loss of bound radioactivity is the signal in a displacement assay; it reports binding, not function.
The target of test [2] is T1, Protein kinase C delta type (Homo sapiens, UniProt Q05655). Nature of the test: Inhibition of [3H]-PDBu binding to PKC delta mutant Leu 24-Gly (No binding).
Target sequence in this assay (Q05655 whole entry, looked up): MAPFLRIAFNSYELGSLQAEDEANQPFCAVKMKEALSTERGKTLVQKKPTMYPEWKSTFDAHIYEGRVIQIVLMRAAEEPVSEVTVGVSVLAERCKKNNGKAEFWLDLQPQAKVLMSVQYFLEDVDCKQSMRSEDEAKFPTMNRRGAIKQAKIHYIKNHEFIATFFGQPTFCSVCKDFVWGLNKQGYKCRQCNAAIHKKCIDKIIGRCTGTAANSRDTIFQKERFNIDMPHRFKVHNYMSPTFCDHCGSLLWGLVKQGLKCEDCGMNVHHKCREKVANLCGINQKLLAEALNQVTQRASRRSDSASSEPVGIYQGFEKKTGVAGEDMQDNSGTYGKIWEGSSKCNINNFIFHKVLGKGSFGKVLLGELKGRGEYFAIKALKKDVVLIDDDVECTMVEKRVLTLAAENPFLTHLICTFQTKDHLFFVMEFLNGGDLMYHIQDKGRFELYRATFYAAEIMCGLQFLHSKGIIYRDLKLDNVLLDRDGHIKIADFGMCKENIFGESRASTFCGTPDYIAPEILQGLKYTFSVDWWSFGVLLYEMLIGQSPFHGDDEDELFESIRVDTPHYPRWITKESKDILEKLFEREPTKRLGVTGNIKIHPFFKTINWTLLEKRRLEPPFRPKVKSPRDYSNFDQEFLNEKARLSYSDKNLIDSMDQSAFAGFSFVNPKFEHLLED
For test [3], the target named is T1, Protein kinase C delta type. Description: Inhibition of [3H]PDBu binding to PKC delta mutant Gln 27-Gly (No binding).
Target sequence in this assay (Q05655 whole entry, looked up): as above
Test [4] deals with T2, Protein kinase C epsilon type (Homo sapiens, UniProt Q02156).
T2 sequence (Q02156 whole entry): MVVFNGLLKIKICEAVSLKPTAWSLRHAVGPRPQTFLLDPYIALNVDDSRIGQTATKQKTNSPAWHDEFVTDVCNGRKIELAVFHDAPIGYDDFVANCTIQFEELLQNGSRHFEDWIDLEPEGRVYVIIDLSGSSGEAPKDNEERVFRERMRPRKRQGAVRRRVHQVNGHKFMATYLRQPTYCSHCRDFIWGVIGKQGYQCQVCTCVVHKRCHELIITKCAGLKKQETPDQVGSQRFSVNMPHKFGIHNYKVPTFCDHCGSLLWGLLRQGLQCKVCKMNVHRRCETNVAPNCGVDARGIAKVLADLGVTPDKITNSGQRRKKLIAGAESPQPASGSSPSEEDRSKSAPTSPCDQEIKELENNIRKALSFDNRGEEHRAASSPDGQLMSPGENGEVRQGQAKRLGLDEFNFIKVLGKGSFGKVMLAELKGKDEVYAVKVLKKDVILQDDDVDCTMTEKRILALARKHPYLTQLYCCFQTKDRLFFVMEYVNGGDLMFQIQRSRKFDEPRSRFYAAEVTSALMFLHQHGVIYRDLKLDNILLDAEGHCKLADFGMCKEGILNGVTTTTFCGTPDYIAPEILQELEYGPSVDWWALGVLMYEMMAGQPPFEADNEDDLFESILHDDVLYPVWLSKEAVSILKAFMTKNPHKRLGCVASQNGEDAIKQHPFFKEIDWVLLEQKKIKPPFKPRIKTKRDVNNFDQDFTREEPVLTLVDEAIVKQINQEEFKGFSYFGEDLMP
Description: Displacement of [3H]- PDBu from recombinant PKC epsilon expressed in baculovirus.

Test [5] concerns the target T1, Protein kinase C delta type. Description: Displacement of [3H]- PDBu from recombinant PKC delta expressed in baculovirus.
Target sequence in this assay (Q05655 whole entry): as the sequence (Q05655 whole entry, looked up) above
Test [6] deals with Protein kinase C gamma type (Homo sapiens, UniProt P05129). Nature of the test: Displacement of [3H]- PDBu from recombinant PKC gamma expressed in baculovirus.
For test [7], the target named is Protein kinase C beta type (Homo sapiens, UniProt P05771). Description: Displacement of [3H]- PDBu from recombinant PKC beta expressed in baculovirus.
Test [8] addresses T1, Protein kinase C delta type. Description: Inhibition of [3H]PDBu binding to PKC delta mutant Pro 11-Gly.
Target sequence in this assay (Q05655 whole entry, looked up): as the sequence (Q05655 whole entry, looked up) above
Test [9] has the same target. Description: Inhibition of [3H]PDBu binding to PKC delta wild type.
Target sequence in this assay (Q05655 whole entry): as the sequence (Q05655 whole entry, looked up) above
Test [10] has the same target. Description: Inhibition of [3H]-PDBu binding to PKC delta mutant Gln 27-Val.
Target sequence in this assay (Q05655 whole entry, looked up): as the sequence (Q05655 whole entry, looked up) above
For test [11] the target is unchanged. Nature of the test: Inhibition of [3H]PDBu binding to PKC delta mutant Leu 20-Gly.
Target sequence in this assay (Q05655 whole entry, looked up): as the sequence (Q05655 whole entry, looked up) above

In general, Ki refers to the dissociation constant of the complex between target and ligand, obtained from inhibition or displacement.

Protein kinase C beta type, sequence (P05771 whole entry): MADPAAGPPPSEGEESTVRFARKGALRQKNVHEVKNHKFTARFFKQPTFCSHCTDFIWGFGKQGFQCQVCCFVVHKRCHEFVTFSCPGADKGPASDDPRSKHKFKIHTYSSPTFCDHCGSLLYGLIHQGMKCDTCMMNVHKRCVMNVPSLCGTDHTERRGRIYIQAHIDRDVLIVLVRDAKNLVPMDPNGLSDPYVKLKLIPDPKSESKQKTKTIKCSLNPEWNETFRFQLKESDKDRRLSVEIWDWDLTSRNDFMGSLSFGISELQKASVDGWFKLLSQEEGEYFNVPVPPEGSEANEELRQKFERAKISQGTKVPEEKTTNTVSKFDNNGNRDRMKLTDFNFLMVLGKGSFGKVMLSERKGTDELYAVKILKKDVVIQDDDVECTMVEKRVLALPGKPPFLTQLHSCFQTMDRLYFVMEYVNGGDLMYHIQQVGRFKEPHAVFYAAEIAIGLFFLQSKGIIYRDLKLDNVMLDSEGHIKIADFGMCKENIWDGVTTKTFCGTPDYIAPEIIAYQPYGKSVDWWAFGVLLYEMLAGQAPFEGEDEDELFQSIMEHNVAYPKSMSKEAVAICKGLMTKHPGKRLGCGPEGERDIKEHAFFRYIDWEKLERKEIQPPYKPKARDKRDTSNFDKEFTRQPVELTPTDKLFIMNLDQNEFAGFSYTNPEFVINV

As for `CC(C)[C@H]1C(=O)N[C@H](CO)Cc2ccccc2N1C`, the Ki in [1] turned out to be 334 nM.

For `CCCC(=O)O[C@@H]1[C@@H](C)[C@@]2(O)[C@@H](C=C(CO)C[C@]3(O)C(=O)C(C)=C[C@@H]23)[C@@H]2C(C)(C)[C@]12OC(=O)CCC`, the inhibition constant (Ki) result in [2] and in [3] was “Not Active” each time.

For `CCCCCCCCCCc1ccc2c(c1)C[C@@H](CO)NC(=O)[C@H](C(C)C)N2C`, the Ki in [4] worked out at 187 nM; in test [5], 142 nM; in [1] it was 46.6 nM; in test [6], 122 nM.

For `CCCCCCCCc1ccc2c3c(c[nH]c13)C[C@@H](CO)NC(=O)[C@H](C(C)C)N2C`, the Ki amounted to 0.4 nM in [7]; 1 nM in [4]; 0.8 nM in test [5]; 0.5 nM in test [1]; 1.2 nM in [6].

With `CCCCCCCCC#Cc1ccc2c(c1)C[C@@H](CO)NC(=O)[C@H](C(C)C)N2C`, the Ki in test [8] was 730 nM; in [9] it was 10.7 nM; in test [7] it was 17.4 nM; in [4], 142 nM; in test [10] it was 933 nM; in [11] it was 134 nM. Also, the results for the inhibition constant Ki in test [5], in [1] and in test [6] were 122 nM, 14.7 nM and 40.7 nM, respectively.

As for `CC(C)[C@H]1C(=O)N[C@H](CO)Cc2c[nH]c3cccc(c23)N1C` [INDOLACTUM], the Ki in test [7] amounted to 6.1 nM; in [4], 21.9 nM; in test [5], 8.2 nM; in test [6], 19.4 nM.
